# Laboratory results taken from PubChem BioAssay AID2060505 (Molecular Pharmacology Branch, DTP, NCI, 2025).
# Tested on: 633275-114-R-J1-PDC complex spheroids, viability
# Test: Anticancer human tumor 633275-114-R-J1-PDC patient-derived endometrial adenocarcinoma cell line growth inhibition [GQUAD]
# Conditions: for IC50: curve of first compound; for viability, T/C: stronger effect = lower value
# Method in brief: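 Multi-cell-type spheroids of tumor cells with HUVEC and mesenchymal stem cells, treated with drug combinations. Concentrations descend in half-log steps from near clinical Cmax, or from 10 microM where Cmax is unknown; viability read-out.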
# [1] = second compound 0.0316 µM, first compound 0.0316 µM
# [2] = second compound 0.0316 µM, first compound 0.1 µM
# [3] = second compound 0.0316 µM, first compound 0.316 µM
# [4] = second compound 0.0316 µM, first compound 1 µM
# [5] = second compound 0.0316 µM, first compound 3.16 µM
# [6] = second compound 0.0316 µM, first compound 10 µM
# [7] = second compound 0.1 µM, first compound 0.0316 µM
# [8] = second compound 0.1 µM, first compound 0.1 µM
# [9] = second compound 0.1 µM, first compound 0.316 µM
# [10] = second compound 0.1 µM, first compound 1 µM
# [11] = second compound 0.1 µM, first compound 3.16 µM
# [12] = second compound 0.1 µM, first compound 10 µM
# [13] = second compound 0.316 µM, first compound 0.0316 µM
# [14] = second compound 0.316 µM, first compound 0.1 µM
# [15] = second compound 0.316 µM, first compound 0.316 µM
# [16] = second compound 0.316 µM, first compound 1 µM
# [17] = second compound 0.316 µM, first compound 3.16 µM
# [18] = second compound 0.316 µM, first compound 10 µM
# [19] = second compound 1 µM, first compound 0.0316 µM
# [20] = second compound 1 µM, first compound 0.1 µM
# [21] = second compound 1 µM, first compound 0.316 µM
# [22] = second compound 1 µM, first compound 1 µM
# [23] = second compound 1 µM, first compound 3.16 µM
# [24] = second compound 1 µM, first compound 10 µM
# [25] = second compound 3.16 µM, first compound 0.0316 µM
# [26] = second compound 3.16 µM, first compound 0.1 µM
# [27] = second compound 3.16 µM, first compound 0.316 µM
# [28] = second compound 3.16 µM, first compound 1 µM
# [29] = second compound 3.16 µM, first compound 3.16 µM
# [30] = second compound 3.16 µM, first compound 10 µM
# [31] = second compound 10 µM, first compound 0.0316 µM
# [32] = second compound 10 µM, first compound 0.1 µM
# [33] = second compound 10 µM, first compound 0.316 µM
# [34] = second compound 10 µM, first compound 1 µM
# [35] = second compound 10 µM, first compound 3.16 µM
# [36] = second compound 10 µM, first compound 10 µM
# 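Note: spheroids exposed to the agents for seven days.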
# 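Throughout, for viability, T/C: percent of DMSO vehicle control viability which is 100%.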
structure (smiles),measurement,setting,value
C=CCn1c(=O)c2cnc(Nc3ccc(N4CCN(C)CC4)cc3)nc2n1-c1cccc(C(C)(C)O)n1 + CN(C)c1ccc(Nc2c3ccc(NC(=O)CCN4CCCC4)cc3nc3cc(NC(=O)CCN4CCCC4)ccc23)cc1,IC50,second compound 0.0316 µM,582 nM
same,IC50,second compound 0.1 µM,692 nM
same,IC50,second compound 0.316 µM,586 nM
same,IC50,second compound 1 µM,641 nM
same,IC50,second compound 3.16 µM,390 nM
same,IC50,second compound 10 µM,< 31.6 nM
same,"viability, T/C",[1],103%
same,"viability, T/C",[2],84.3%
same,"viability, T/C",[3],69.8%
same,"viability, T/C",[4],33.9%
same,"viability, T/C",[5],19.5%
same,"viability, T/C",[6],14.8%
same,"viability, T/C",[7],106%
same,"viability, T/C",[8],92.5%
same,"viability, T/C",[9],82.1%
same,"viability, T/C",[10],34.2%
same,"viability, T/C",[11],20.8%
same,"viability, T/C",[12],14.1%
same,"viability, T/C",[13],105%
same,"viability, T/C",[14],97%
same,"viability, T/C",[15],63.8%
same,"viability, T/C",[16],37.6%
same,"viability, T/C",[17],20.6%
same,"viability, T/C",[18],15.6%
same,"viability, T/C",[19],93.4%
same,"viability, T/C",[20],85%
same,"viability, T/C",[21],71%
same,"viability, T/C",[22],36.9%
same,"viability, T/C",[23],19.8%
same,"viability, T/C",[24],15.7%
same,"viability, T/C",[25],87.2%
same,"viability, T/C",[26],66.8%
same,"viability, T/C",[27],55.8%
same,"viability, T/C",[28],34.8%
same,"viability, T/C",[29],29.4%
same,"viability, T/C",[30],16.6%
same,"viability, T/C",[31],32.2%
same,"viability, T/C",[32],23.9%
same,"viability, T/C",[33],22.2%
same,"viability, T/C",[34],16.9%
same,"viability, T/C",[35],14.9%
same,"viability, T/C",[36],7.51%
COc1ncnc(C2CC2)c1-c1ncc2cnn(Cc3ccc(-c4nc(C(F)(F)F)cn4C(C)C)cc3)c2n1 + CN(C)c1ccc(Nc2c3ccc(NC(=O)CCN4CCCC4)cc3nc3cc(NC(=O)CCN4CCCC4)ccc23)cc1,IC50,second compound 0.0316 µM,> 10000 nM
same,IC50,second compound 0.1 µM,> 10000 nM
same,IC50,second compound 0.316 µM,> 10000 nM
same,IC50,second compound 1 µM,> 10000 nM
same,IC50,second compound 3.16 µM,> 10000 nM
same,IC50,second compound 10 µM,< 31.6 nM
same,"viability, T/C",[1],102%
same,"viability, T/C",[2],102%
same,"viability, T/C",[3],84.5%
same,"viability, T/C",[4],101%
same,"viability, T/C",[5],102%
same,"viability, T/C",[6],95.4%
same,"viability, T/C",[7],101%
same,"viability, T/C",[8],90.8%
same,"viability, T/C",[9],88.4%
same,"viability, T/C",[10],99%
same,"viability, T/C",[11],93.3%
same,"viability, T/C",[12],87.3%
same,"viability, T/C",[13],86.8%
same,"viability, T/C",[14],103%
same,"viability, T/C",[15],86.8%
same,"viability, T/C",[16],94.5%
same,"viability, T/C",[17],97.2%
same,"viability, T/C",[18],94%
same,"viability, T/C",[19],89.3%
same,"viability, T/C",[20],97.9%
same,"viability, T/C",[21],92.6%
same,"viability, T/C",[22],69.2%
same,"viability, T/C",[23],96.6%
same,"viability, T/C",[24],92.3%
same,"viability, T/C",[25],79.8%
same,"viability, T/C",[26],81.7%
same,"viability, T/C",[27],81.2%
same,"viability, T/C",[28],76.1%
same,"viability, T/C",[29],84.4%
same,"viability, T/C",[30],67.8%
same,"viability, T/C",[31],32.7%
same,"viability, T/C",[32],30.2%
same,"viability, T/C",[33],31.1%
same,"viability, T/C",[34],27.2%
same,"viability, T/C",[35],26.6%
same,"viability, T/C",[36],12.8%
Cc1[nH]c2ccccc2c1CCNCc1ccc(/C=C/C(=O)NO)cc1 + CN(C)c1ccc(Nc2c3ccc(NC(=O)CCN4CCCC4)cc3nc3cc(NC(=O)CCN4CCCC4)ccc23)cc1,IC50,second compound 0.0316 µM,82.6 nM
same,IC50,second compound 0.1 µM,55.1 nM
same,IC50,second compound 0.316 µM,55.2 nM
same,IC50,second compound 1 µM,48 nM
same,IC50,second compound 3.16 µM,24.8 nM
same,IC50,second compound 10 µM,< 0.999 nM
same,"viability, T/C","second compound 0.0316 µM, first compound 0.000999 µM",97.4%
same,"viability, T/C","second compound 0.0316 µM, first compound 0.00316 µM",94.7%
same,"viability, T/C","second compound 0.0316 µM, first compound 0.00999 µM",84.9%
same,"viability, T/C",[1],59.6%
same,"viability, T/C","second compound 0.0316 µM, first compound 0.0999 µM",51.3%
same,"viability, T/C",[3],21.6%
same,"viability, T/C","second compound 0.1 µM, first compound 0.000999 µM",94.2%
same,"viability, T/C","second compound 0.1 µM, first compound 0.00316 µM",102%
same,"viability, T/C","second compound 0.1 µM, first compound 0.00999 µM",80.5%
same,"viability, T/C",[7],57.1%
same,"viability, T/C","second compound 0.1 µM, first compound 0.0999 µM",43%
same,"viability, T/C",[9],22%
same,"viability, T/C","second compound 0.316 µM, first compound 0.000999 µM",96.8%
same,"viability, T/C","second compound 0.316 µM, first compound 0.00316 µM",97.4%
same,"viability, T/C","second compound 0.316 µM, first compound 0.00999 µM",70.5%
same,"viability, T/C",[13],60.5%
same,"viability, T/C","second compound 0.316 µM, first compound 0.0999 µM",41.2%
same,"viability, T/C",[15],19.4%
same,"viability, T/C","second compound 1 µM, first compound 0.000999 µM",88%
same,"viability, T/C","second compound 1 µM, first compound 0.00316 µM",83.4%
same,"viability, T/C","second compound 1 µM, first compound 0.00999 µM",67.3%
same,"viability, T/C",[19],58.1%
same,"viability, T/C","second compound 1 µM, first compound 0.0999 µM",38.4%
same,"viability, T/C",[21],18.3%
same,"viability, T/C","second compound 3.16 µM, first compound 0.000999 µM",82.4%
same,"viability, T/C","second compound 3.16 µM, first compound 0.00316 µM",80.2%
same,"viability, T/C","second compound 3.16 µM, first compound 0.00999 µM",61.2%
same,"viability, T/C",[25],48.6%
same,"viability, T/C","second compound 3.16 µM, first compound 0.0999 µM",26.3%
same,"viability, T/C",[27],15.4%
same,"viability, T/C","second compound 10 µM, first compound 0.000999 µM",34.1%
same,"viability, T/C","second compound 10 µM, first compound 0.00316 µM",29.8%
same,"viability, T/C","second compound 10 µM, first compound 0.00999 µM",21%
same,"viability, T/C",[31],23.4%
same,"viability, T/C","second compound 10 µM, first compound 0.0999 µM",13.6%
same,"viability, T/C",[33],4.56%
